This is an account of results in patent publication US9259433B2, “Synergistic antiviral compositions comprising a viral attachment inhibitor, an integration inhibitor, and a proviral transcription inhibitor, and their use” (priority 2007, dated 2016).

The subject of data set [1] is HIV-1. The following applies: read-out: inhibited HIV replication (IC90); FIG. 5.
The test system of data set [2] is HIV-1.
Data set [3] has as its system HIV-1RTMF (AZT-resistant virus). Nature of the data set: HIV replication in infected H9 cells, HIV/p24 monoclonal antibody assay. In kind it is cell-based. The protocol: (§1) The inhibitory effect of M522 and M532 against HIV replication was further examined using 5 different strains of HIV-1, drug resistant and primary isolates in the presence of a variety of drug concentrations in infected H9 cells.
A series of drug concentrations ranging from 1.25 μg/ml to 160 μg/ml were used for testing the cytotoxicity of M522 and M532 in H9 cells, using the MTT assay to determine the viability of H9 cells in culture.

Data set [4] concerns HIV. Nature of the data set: HIV entry in H9 cells. In kind it is cell-based. The conditions noted are these: compound by itself. From the text: (§2) a. Salvia genus of Labiaceae family contains approximately 1000 species. 78 of these are distributed in different regions in China. […] An INi search was established based on an assay-guided purification procedure utilizing different concentrations of methanol, propanol, a two-layer extraction system (low salt water/butanol), and a high resolution inverted phase HPLC (Sperisorb OD S-2).

Data set [5] has as its system HIV-1L1OR/M461/L63P.V82T/184V (protease inhibitor resistant virus). Nature of the data set: HIV replication in infected H9 cells, HIV/p24 monoclonal antibody assay. In kind it is cell-based. The following applies: Human immunodeficiency virus 1, H9.
Text: as §1

For data set [6], the system named is HIV-1MN. Described as above. In kind it is cell-based. The following applies: Human immunodeficiency virus 1.
Text: as §1

Data set [7] deals with HIV-1IIIBA17 variant. The data set is described as above. In kind it is cell-based. The following applies: Human immunodeficiency virus 1, H9.
Text: as §1

The test system of data set [8] is HIV-1IIIB. The data set is described as above. In kind it is cell-based. The conditions noted are these: Human immunodeficiency virus 1.
Text: as §1

For data set [9], the system named is HIV-1RTMF. Nature of the data set: Drug combination study in H9 cells infected with HIV-1RTMF, p24 assay. In kind it is cell-based. The text has this: We tested drug combinations against two different cells infected with laboratory strain of HIV-1 RTMF. For these drug combinational studies, both the H9 cells and human PBMC have been used. We first tested how our inhibitors affect one specific strain of HIV which is resistant to drug against RT (HIV-1RTMF). Briefly H9 (1×10^5/ml) were infected with HIV-1RTMF strain with a multiplicity of infection of 0.1. These cells were further tested with three drugs, M522, Gen-1 and G4N, either in combination or separately (8, 10, 21B). After 4-day incubation at 37° C., H9 cells were subcultured with fresh culture medium containing appropriate concentrations 0, 1.25, 2.5, 5, 10, 20, 40 and 80 μM of each of the drugs, or of a combination of all three of the drugs, each at the indicated concentration. The inhibition for HIV-1 by these combinations of drugs was examined using p24 assay after 8 days.
(§3) Similarly, PBMC cells were isolated from a healthy blood sample and these cells were stimulated by PHA and IL-2. PBMC (5×10^6/ml) were infected with HIV-1RTMF. The cells were treated with three combinations of drugs, M522, Gen-1 and G4N. Fresh media and drugs were added after 4 days with drug concentrations 0, 1.25, 2.5, 5, 10, 20, 40 and 80 μM. The inhibition for HIV-1 by these combinations of drugs was also examined by using p24 assay after 8 days. […] In comparison, cytotoxicity for the three drugs combined to H9 cells was also analyzed using an MTT assay.

Data set [10] concerns the target HIV-1 integrase (Human immunodeficiency virus type 1 group M subtype B, UniProt P04585). Nature of the data set: HIV-1 integrase catalytic activity of 3'-joining to the target DNA. In kind it is biochemical.
Text: as §2

Data set [11] addresses deletion mutant HIV-1 integrase (IN^50-212) (Human immunodeficiency virus type 1 group M subtype B, UniProt P04585). Put plainly: Disintegration assay. The following applies: IN^50-212 core domain; equal efficacy with wild type. In kind it is biochemical. The procedure: (§4) To determine whether M522 and M532 are acting against the catalytic core domain specifically, disintegration assay was tested using deletion mutant IN containing only the core domain of HIV integrase. Such deletion mutant is defective for normal integration, but it is capable of catalyzing a reversal of the forward reaction, termed “disintegration”. The disintegration reaction can be assayed by using a deletion mutant HIV-1 integrase (IN^50-212) which lacks both the amino terminal zinc binding and the carboxyl terminal DNA binding domains but remains active in this assay, whereas such truncated IN loses activity in the 3′-processing and joining (strand transfer) assays. So, disintegration assay can be used to probe the site of drug-enzyme binding.

Data set [12] deals with wild type HIV-1 integrase (Human immunodeficiency virus type 1 group M subtype B, UniProt P04585). Nature of the data set: Disintegration assay. In kind it is biochemical. The following applies: equal efficacy with deletion mutant. The protocol:
as §4

Data set [13] addresses T1, reverse transcriptase (Human immunodeficiency virus type 1 group M subtype B, UniProt P04585).
T1 construct: endogenous in cells; host or cells: HIV-infected cells (H9 cells named in the same paragraph)
Put plainly: Reverse transcriptase activity and viral DNA levels in infected cells. In kind it is cell-based, HIV.
Text: as §2

The subject of data set [14] is H9 cells. In kind it is cell-based. The conditions noted are these: human, 192 h. The protocol:
A series of drug concentrations ranging from 1.25 μg/ml to 160 μg/ml were used for testing the cytotoxicity of M522 and M532 in H9 cells, using the MTT assay to determine the viability of H9 cells in culture. […] In fact, the drug-protected, HIV-infected H9 cells appeared to be morphologically identical to the uninfected control cells (6).
as §3

For data set [15], the system named is HIV-1. Nature of the data set: Acute HIV-1 infection of H9 cells. In kind it is cell-based. The following applies: Human immunodeficiency virus 1.
Text: as §2

Data set [16] can be described thus: Topical toxicity in guinea pigs. In kind it is in vivo.
The test system of data set [17] is HIV Sp1 enhancer sequence. Nature of the data set: Binding to Sp1 enhancer sequence by ethidium displacement. The conditions noted are these: excitation 517 nm, emission 596 nm. The text has this:
The mechanism underlying the antiviral action for NDGA derivatives was largely unknown before 1995. In 1995, Huang's group first reported a molecular study on 3′-O-methyl NDGA (FIG. 11, Mal 4)(15) isolated from creosote bush (Larrea tridentate) (16,3). […] NDGA derivatives interfere with the binding of transcription factor Sp1 to the promoter of the HIV proviral template. The target of Mal.4 is mapped to nucleotides −87 to −40, the Sp1 binding sites of the HIV long terminal repeat (LTR). […] However, large preparations of such NDGA derivatives from plant sources are labor intensive and costly. In anticipation of the possible clinical use of lignans in controlling Sp1-regulated viral and tumor growth in humans, nine different methylated NDGAs and several water soluble NDGA derivatives were synthesized chemically in large quantities with low cost (17, 18, 26, FIG. 11). Unsubstituted NDGA was used as the parent substrate. […]

Data set [18] has as its system acyclovir-resistant strains of HSV-1. Nature of the data set: Inhibition of acyclovir-resistant strains of HSV-1. In kind it is cell-based. The text has this: Because the inhibitory mechanism of this class of compounds is completely distinct from the antiviral mechanism of nucleoside analogue agents, there is little possibility of cross-resistance between these two classes of drugs.

The subject of data set [19] is HSV-1. Put plainly: Dorsal cutaneous guinea pig model of HSV-1 infection. In kind it is in vivo. The procedure: M4N and G4N were tested for their abilities to prevent HSV-1 infection in two animal model systems. The dorsal cutaneous guinea pig model system is a well-established model for HSV-1 infection that has been used in several studies to comparatively assess the potential efficacy of different topical formulations for treatment of herpes labialis. Straten M V, Carrasco D, Lee P, Tyring S K, Arch. Dermatol 137, 1232-1235 2001.

In data set [20] the test system is HSV-2. Nature of the data set: Mouse vaginal model of HSV-2 infection. In kind it is in vivo, female CF-1 mice. From the text: P4N was also found to be quite effective.
The conditions of data set [21]: mouse, in vivo.
Text: The efficacies of M4N and G4N against HSV-2 in a mouse vaginal model system were also examined. Progestin-treated female CF-1 mice (10 per group) were infected with HSV-2 in the absence or presence of G4N (in PBS), P4N (in PBS), or M4N in Vaseline (23). At the end of three days, the vaginal lavages were collected from the washings of the vagina regions. The status of the vaginal HSV-2 infection and replication were examined by their cytopathic effects on cultured human foreskin fibroblast cells. Monitoring and scoring were carried out by three persons independently.

Several values for one entry are separate records, joined by “and”; a condition that tells them apart may be missing. Identical values can stand only once. Like-named read-outs stand apart in the source and are kept apart here.

As for acetylated Tieghemelin [oAc-Gen-1], the IC90 in data set [1] was around 10 µM. Further, in [2] (preincubation of drug with CD4+ cells), the “HIV-1 entry and infection in CD4+ cells” value was “did not prevent HIV-1 entry and infection”. Besides, in data set [2] (preincubation of drug with HIV-1 virus), the “infectivity of HIV-1” value is “totally inactivated the infectivity”.

For `O=C(/C=C/c1ccc(O)c2c1[C@H](C(=O)O)[C@@H](c1ccc(O)c(O)c1)O2)O[C@H](Cc1ccc(O)c(O)c1)C(=O)O` [M522, lithospermic acid], the syncytia formation entry in data set [3] (H9 cells infected with HIV-1RTMF in the presence of drug) is “syncytia formation was prevented”. The half-maximal inhibitory concentration (IC50) in [3] (Human immunodeficiency virus 1, H9) was 2.5 µg/mL and 4.6 µM; in data set [5], 6 µg/mL and 11.1 µM; in data set [6] it was 16.7 µM and 9 µg/mL; in [7] it was 1.1 µg/mL and 2 µM; in data set [8], 11 µg/mL and 20.4 µM; in [9] (Human immunodeficiency virus 1, H9, 192 h) it was 4 to 6 µM. In addition, the results for the concentration for half-maximal inhibition (IC50) in data set [10] and in [15] were 0.48 µM and 2 µM, respectively. In addition, the “prevention of HIV entry” value in data set [4] was “Neither M522 nor M532 by itself prevents HIV entry”. Further, the inhibition of disintegration entry in data set [11] and in data set [12] was “inhibited” each time. The “levels of intracellular strong stop and full-length viral DNA” value in data set [13] (following drug treatment) is listed as “remained unchanged”. The “inhibition of reverse transcriptase activity” value in data set [13] (infected cells) is “no inhibition of reverse transcriptase activity”. Besides, the “CC100 (highest concentration tested, cells remained viable)” value in data set [14] was found to be 160 µg/mL.

For `C[C@H](Cc1ccc(OC(=O)CN(C)C)c(OC(=O)CN(C)C)c1)[C@@H](C)Cc1ccc(OC(=O)CN(C)C)c(OC(=O)CN(C)C)c1` [G4N, meso-1,4-bis[3,4-(dimethylaminoacetoxy)phenyl]-(2R,3S)dimethylbutane], the “toxicity or dermal irritation” value in data set [16] (highest soluble concentrations (150 mM)) is given as “no evidence of toxicity or dermal irritation”. In data set [16] (topical application for six days, up to 50 mM), the toxicity result is listed as “no evidence of toxicity”. In data set [17], the “apparent equilibrium binding constant (Kapp)” value came to 3e+06 M⁻¹. The IC50 in data set [9] (H9 cells, p24 assay after 8 days, for the combination, this concentration of each drug, read-out: IC50) stood at 18 µM. For the same compound, in data set [18], the “efficacy against acyclovir-resistant strains” value is “no cross-resistance”. Besides, the figures for the “response to treatment (visual assessment)” value in data set [19] (5 μM), in [19] (10 μM) and in data set [19] (150 μM) were “semi-effective”, “more effective” and “extremely effective”, respectively. Besides, in data set [19] (guinea pig, in vivo), the “HSV-1 induced cutaneous lesion formation and viral shedding” value was “effectively inhibited”. In addition, in [20] (0.1 mM), the average score is 0.5. This compound yielded an infection in data set [20] (0.1 mM) of around 12.5 % infection. The animals infected in data set [20] (0.1 mM, 10 mice per group, day 3 vaginal lavage) is 1 out of 10; in data set [20] (10 mM, 10 mice per group), “no infections detected”; in [20] (100 mM), “no infections detected”.

`COc1ccc(C[C@@H](C)[C@@H](C)Cc2ccc(OC)c(OC)c2)cc1OC` [M4N, tetra-O-methyl NDGA]: in data set [18], the “efficacy against acyclovir-resistant strains” value was “retains complete efficacy”. Further, the toxicity entry in [21] is listed as “no toxicity”. In addition, in [20] (20 mg/ml in Vaseline), the “infection in the other 4 mice” value is “very little infection”; the “mice fully infected, out of 8” value amounted to 4; the “score of the fully infected mice” value was 3-4.
